These are literature values, as cited in article PMC8352932, “Targeted activity of the small molecule kinase inhibitor Pz-1 towards RET and TRK kinases” (Scientific Reports, 2021).

Values joined by “and” are separate entries in the source; they are usually repeats but may differ in a detail not shown here. Equal entries are not always repeated.

Common to all, as to conditions: read-out: cell proliferation IC50
For one data set, the system named is KIF5B-RET Ba/F3 cells.
In a further data set the test system is TEL-TRKA Ba/F3 cells.
A further data set has as its system MPRIP-TRKA Ba/F3 cells. Also on record: method as in PMID 24162815.

With `COc1cc2nccc(Oc3ccc(NC(=O)C4(C(=O)Nc5ccc(F)cc5)CC4)cc3)c2cc1OC` [cabozantinib], the IC50 in the data set with KIF5B-RET Ba/F3 cells is 341 nM.

For `CN1CCN(c2ccc(C(=O)Nc3n[nH]c4ccc(Cc5cc(F)cc(F)c5)cc34)c(NC3CCOCC3)c2)CC1` [entrectinib], the IC50 in the data set with TEL-TRKA Ba/F3 cells is 2.8 nM.

As to `O=C(Nc1cnn2ccc(N3CCC[C@@H]3c3cc(F)ccc3F)nc12)N1CC[C@H](O)C1` [larotrectinib], the IC50 in the data set on MPRIP-TRKA Ba/F3 cells was 8 nM.

In the case of `CO[C@]1(C(=O)N[C@@H](C)c2ccc(-n3cc(F)cn3)nc2)CC[C@H](c2nc(C)cc(Nc3cc(C)[nH]n3)n2)CC1` [pralsetinib], the IC50 with KIF5B-RET Ba/F3 cells was 9.7 nM and 16.5 nM.

In the case of `COc1ccc(CN2C3CC2CN(c2ccc(-c4cc(OCC(C)(C)O)cn5ncc(C#N)c45)cn2)C3)cn1` [selpercatinib], the IC50 in the data set on KIF5B-RET Ba/F3 cells is 8 nM.
